Source: patent US8044211B2 (Chroma Therapeutics Ltd., priority 2006, dated 2011)
Where two headings read alike, the source gives them in different places.

Columns and labels:
p38 MAP Kinase a = biological target: T1, p38 MAP Kinase a (Homo sapiens, UniProt Q16539); experiment: p38 MAP Kinase activity, radiometric filter-binding assay (Upstate); assay type: biochemical; conditions: IC50 range; ATP at or close to Km; read-out: Inhibitor activity versus p38 MAPKa
T1 construct: purchased Upstate (Dundee UK)
Method: The ability of compounds to inhibit p38 MAP a Kinase activity was measured in an assay performed by Upstate (Dundee UK). In a final reaction volume of 25 μL, p38 MAP Kinase a (5-10 mU) is incubated with 25 mM Tris pH 7.5, 0.002 mMEGTA, 0.33 mg/mL myelin basic protein, 10 mM MgAcetate and [g-33P-ATP] (specific activity approx. 500 cpm/pmol, concentration as required). The reaction is initiated by the addition of the MgATP mix. After incubation for 40 minutes at room temperature, the reaction is stopped by the addition of 5 μL of a 3% phosphoric acid solution. 10 μL of the reaction is then spotted onto a P30 filtermat and washed three times for 5 minutes in 75 mM phosphoric acid and once in methanol prior to drying and scintillation counting.
Duplicate data points are generated from a ⅓ log dilution series of a stock solution in DMSO. Nine dilutions steps are made from a top concentration of 10 μM, and a ‘no compound’ blank is included. The standard radiometric filter-binding assay is performed at an ATP concentration at, or close to, the Km. Data from scintillation counts are collected and subjected to free-fit analysis by Prism software. From the curve generated, the concentration giving 50% inhibition is determined and reported.

THP-1 TNFα release = experiment: LPS-stimulation of THP-1 cells, TNF-α by ELISA; assay type: cell-based; conditions: IC50 range, LPS 1 μg/ml, 6 hrs, read-out: Inhibitor activity versus THP-1 TNFα release
Method: THP-1 cells were plated in 100 μl at a density of 4×10^4 cells/well in V-bottomed 96 well tissue culture treated plates and incubated at 37° C. in 5% CO2 for 16 hrs. 2 hrs after the addition of the inhibitor in […], of tissue culture media, the cells were stimulated with LPS (E. coli strain 005:B5, Sigma) at a final concentration of 1 μg/ml and incubated at 37° C. in 5% CO2 for 6 hrs. TNF-α levels were measured from cell-free supernatants by sandwich ELISA (R&D Systems #QTA00B).

T1 sequence (Q16539 whole entry): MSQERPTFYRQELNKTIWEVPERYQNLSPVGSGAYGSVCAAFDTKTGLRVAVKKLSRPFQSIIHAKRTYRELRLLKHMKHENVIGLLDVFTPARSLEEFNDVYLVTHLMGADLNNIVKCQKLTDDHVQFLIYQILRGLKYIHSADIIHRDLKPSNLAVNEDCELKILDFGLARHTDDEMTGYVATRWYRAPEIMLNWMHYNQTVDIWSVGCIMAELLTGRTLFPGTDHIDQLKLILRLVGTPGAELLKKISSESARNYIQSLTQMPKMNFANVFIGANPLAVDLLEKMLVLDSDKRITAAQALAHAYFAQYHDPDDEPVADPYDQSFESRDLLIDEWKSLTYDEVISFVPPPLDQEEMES

Compound	IC50 (p38 MAP Kinase a)	IC50 (THP-1 TNFα release; Homo sapiens, THP-1)	IC50 (THP-1 TNFα release)
Nc1c(C(=O)c2ccc(F)cc2F)ccc(=O)n1-c1c(F)cc(OCCCN[C@H](C(=O)OC2Cc3ccccc3C2)c2ccccc2)cc1F [Example 40, 2,3-Dihydro-1H-inden-2-yl (2S)-[(3-{4-[6-amino-5-(2,4-difluorobenzoyl)-2-oxopyridin-1(2H)-yl]-3,5-difluorophenoxy}propyl)amino](phenyl)acetate]	< 0.1 µM	< 0.1 µM	
COc1ccc(C(=O)c2ccc(=O)n(-c3ccc(CCN[C@@H](CC(C)C)C(=O)OC4CCCC4)cc3)c2N)cc1 [Example 64, Cyclopentyl N-[2-(4-{6-amino-5-[(4-methoxyphenyl)carbonyl]-2-oxopyridin-1(2H)-yl}phenyl)ethyl]-L-leucinate]	> 1 µM	0.1 to 1 µM	
Nc1c(C(=O)c2ccc(F)cc2)ccc(=O)n1-c1ccc(OCCCN[C@H](C(=O)OC2CCCC2)c2ccccc2)cc1 [Example 23, Cyclopentyl(S)-(3-{4-[6-Amino-5-(4-fluorobenzoyl)-2-oxo-2H-pyridin-1-yl]-phenoxy}propylamino)phenylacetate]	< 0.1 µM	0.1 to 1 µM	
Cc1cc(C(=O)c2ccc(=O)n(-c3ccc(OCCCN[C@@H](Cc4ccccc4)C(=O)OC4CCCC4)cc3)c2N)ccc1F [Example 12, Cyclopentyl(S)-2-(3-{4-[6-Amino-5-(3-methyl-4-fluorobenzoyl)-2-oxo-2H-pyridin-1-yl]phenoxy}propylamino)-3-phenyl propionate]	< 0.1 µM	0.1 to 1 µM	
Cc1cc(C(=O)c2ccc(=O)n(-c3ccc(CN[C@@H](Cc4ccccc4)C(=O)OC4CCCC4)cc3)c2N)ccc1F [Example 5, Cyclopentyl(S)-2-{4-[6-Amino-5-(3-methyl-4-fluorobenzoyl)-2-oxo-2H-pyridin-1-yl]benzylamino}-3-phenylpropionate]	0.1 to 1 µM	> 1 µM	
Cc1cc(C(=O)c2ccc(=O)n(-c3c(F)cc(OCCCN[C@H](C(=O)OC4CCCC4)c4ccccc4)cc3F)c2N)ccc1F [Example 17, Cyclopentyl(S)-(3-{4-[6-Amino-5-(4-fluoro-3-methylbenzoyl)-2-oxo-2H-pyridin-1-yl]-3,5-difluorophenoxy}propylamino) phenylacetate]	< 0.1 µM	< 0.1 µM	
Nc1c(C(=O)c2ccc(F)cc2F)ccc(=O)n1-c1c(F)cc(OCCCN[C@H](C(=O)OC2CC3CCC2C3)c2ccccc2)cc1F (stereo partly drawn) [Example 43, Bicyclo[2.2.1]hept-2-yl(2S)-[(3-{4-[6-amino-5-(2,4-difluorobenzoyl)-2-oxopyridin-1(2H)-yl]-3,5-difluorophenoxy}propyl)amino](phenyl)acetate]	< 0.1 µM	< 0.1 µM	
Cc1cc(C(=O)c2ccc(=O)n(-c3ccc(CN[C@H](C(=O)OC4CCCC4)c4ccccc4)cc3)c2N)ccc1F [Example 4, Cyclopentyl(S)-{4-[6-Amino-5-(3-methyl-4-fluorobenzoyl)-2-oxo-2H-pyridin-1-yl]benzylamino}phenylacetate]	0.1 to 1 µM	> 1 µM	
Nc1c(C(=O)c2ccc(F)cc2)ccc(=O)n1-c1ccc(CN[C@@H](Cc2ccccc2)C(=O)OC2CCCC2)cc1 [Example 2, Cyclopentyl(S)-2-{4-[6-Amino-5-(4-fluorobenzoyl)-2-oxo-2H-pyridin-1-yl]benzylamino}-3-phenylpropionate]	0.1 to 1 µM	> 1 µM	
CC(C)(C)OC(=O)[C@H](Cc1ccccc1)NCCCOc1cc(F)c(-n2c(N)c(C(=O)c3ccc(F)cc3F)ccc2=O)c(F)c1 [Example 37, tert-Butyl(S)-2-(3-{4-[6-Amino-5-(2,4-difluorobenzoyl)-2-oxo-2H-pyridin-1-yl]-3,5-difluorophenoxy}-propylamino)-3-phenyl propionate]	< 0.1 µM	0.1 to 1 µM	
CC(C)C[C@@H](NCCCOc1cc(F)c(-n2c(N)c(C(=O)c3ccc(F)cc3F)ccc2=O)c(F)c1)C(=O)OC1CCCC1 [Example 50, Cyclopentyl N-(3-{4-[6-amino-5-(2,4-difluorobenzoyl)-2-oxopyridin-1(2H)-yl]-3,5-difluorophenoxy}propyl)-D-leucinate]	< 0.1 µM	< 0.1 µM	
Nc1c(C(=O)c2ccc(F)cc2)ccc(=O)n1-c1ccc(CCN[C@H](C(=O)OC2CCCC2)c2ccccc2)cc1 [Example 61, Cyclopentyl(2S)-{[2-(4-{6-amino-5-[(4-fluorophenyl)carbonyl]-2-oxopyridin-1(2H)-yl}phenyl)ethyl]amino}(phenyl)ethanoate]	0.1 to 1 µM	< 0.1 µM	
Nc1c(C(=O)c2ccc(F)cc2)ccc(=O)n1-c1c(F)cc(OCCCN[C@@H](Cc2ccccc2)C(=O)OC2CCCC2)cc1F [Example 14]	< 0.1 µM	< 0.1 µM	
Nc1c(C(=O)c2ccc(F)cc2)ccc(=O)n1-c1ccc(OCCCN[C@@H](Cc2ccccc2)C(=O)OC2CCCC2)cc1 [Example 24, Cyclopentyl(S)-2-(3-{4-[6-Amino-5-(4-fluorobenzoyl)-2-oxo-2H-pyridin-1-yl]phenoxy}propylamino)-3-phenylpropionate]	< 0.1 µM	0.1 to 1 µM	
Cyclopentyl(S)-2-{4-[6-Amino-5-(2,4-fluorobenzoyl)-2-oxo-2H-pyridin-1-yl]-3,5-difluorobenzylamino}-3-phenylpropionate [Example 10]	< 0.1 µM		0.1 to 1 µM
Nc1c(C(=O)c2ccc(F)cc2)ccc(=O)n1-c1c(F)cc(OC2CCC(N[C@H](C(=O)OC3CCCC3)c3ccccc3)CC2)cc1F (stereo partly drawn) [Example 32, Cyclopentyl(2S)-[(4-{4-[6-amino-5-(4-fluorobenzoyl)-2-oxopyridin-1(2H)-yl]-3,5-difluorophenoxy}cyclohexyl)amino](phenyl)acetate]	< 0.1 µM	< 0.1 µM	
CC(C)C[C@H](NCCCCCOc1cc(F)c(-n2c(N)c(C(=O)c3ccc(F)cc3F)ccc2=O)c(F)c1)C(=O)OC(C)(C)C [Example 54, tert-Butyl N-(5-{4-[6-amino-5-(2,4-difluorobenzoyl)-2-oxopyridin-1(2H)-yl]-3,5-difluorophenoxy}pentyl)-L-leucinate]	< 0.1 µM	< 0.1 µM	
Nc1c(C(=O)c2ccc(F)cc2)ccc(=O)n1-c1ccc(CN[C@H](C(=O)O)c2ccccc2)cc1 [Example 75, (S)-{4-[6-Amino-5-(4-fluorobenzoyl)-2-oxo-2H-pyridin-1-yl]benzylamino}phenylacetic acid]	0.1 to 1 µM		
CC(C)C[C@H](NCCCOc1ccc(-n2c(N)c(C(=O)c3ccc(F)cc3F)ccc2=O)cc1)C(=O)O [Example 96, (S)-2-(3-{4-[6-Amino-5-(2,4-difluorobenzoyl)-2-oxo-2H-pyridin-1-yl]phenoxy}propylamino)-4-methyl pentanoic acid]	< 0.1 µM		
CC(C)C[C@H](NCCCOc1ccc(-n2c(N)c(C(=O)c3ccc(F)cc3)ccc2=O)cc1)C(=O)O [Example 85, (S)-2-(3-{4-[6-Amino-5-(4-fluorobenzoyl)-2-oxo-2H-pyridin-1-yl]phenoxy}propylamino)-4-methylpentanoic acid]	< 0.1 µM		
CC(C)C[C@H](NCc1ccc(-n2c(N)c(C(=O)c3ccc(F)cc3)ccc2=O)cc1)C(=O)O [Example 79, (S)-2-{4-[6-Amino-5-(4-fluorobenzoyl)-2-oxo-2H-pyridin-1-yl]benzylamino}-4-methylpentanoic acid]	0.1 to 1 µM		
CC(C)C[C@H](NCc1cc(F)c(-n2c(N)c(C(=O)c3ccc(F)cc3F)ccc2=O)c(F)c1)C(=O)O [Example 101]	< 0.1 µM		
CC(C)C[C@H](NCCCOc1cc(F)c(-n2c(N)c(C(=O)c3ccc(F)cc3)ccc2=O)c(F)c1)C(=O)O [Example 91]	< 0.1 µM		
Nc1c(C(=O)c2ccc(F)cc2)ccc(=O)n1-c1ccc(CCN[C@H](C(=O)O)c2ccccc2)cc1 [Example 118]	< 0.1 µM		
CC(C)C[C@H](NCCCOc1cc(F)c(-n2c(N)c(C(=O)c3ccc(F)cc3F)ccc2=O)c(F)c1)C(=O)O [Example 97, (S)-2-(3-{4-[6-Amino-5-(2,4-difluorobenzoyl)-2-oxo-2H-pyridin-1-yl]-3,5-difluorophenoxy}propylamino)-4-methyl pentanoic acid]	< 0.1 µM		
Nc1c(C(=O)c2ccc(F)cc2)ccc(=O)n1-c1c(F)cc(OCCCN[C@@H](Cc2ccccc2)C(=O)O)cc1F [Example 90]	< 0.1 µM		
Cc1cc(C(=O)c2ccc(=O)n(-c3ccc(OCCCN[C@H](C(=O)O)c4ccccc4)cc3)c2N)ccc1F [Example 87]	0.1 to 1 µM		
CC(C)C[C@H](NC(=O)COc1ccc(-n2c(N)c(C(=O)c3ccc(F)cc3)ccc2=O)cc1)C(=O)O [Example 110, N-({4-[6-Amino-5-(4-fluorobenzoyl)-2-oxopyridin-1(2H)-yl]phenoxy}-acetyl)-L-leucine]	0.1 to 1 µM		
